Measured values reported in ChEMBL document CHEMBL1152969, “Verbesinosides A-F, 15,27-cyclooleanane saponins from the American native plant Verbesina virginica” (J Nat Prod, 2009).
The source made the active and inactive calls.

What was measured:
Format in all cases: functional, organism-based
[1] = tested on: Candida albicans; experiment: Antimicrobial activity against Candida albicans at 20 ug/mL
[2] = tested on: Aspergillus fumigatus; experiment: Antimicrobial activity against Aspergillus fumigatus at 20 ug/mL
[3] = tested on: Cryptococcus neoformans; experiment: Antimicrobial activity against Cryptococcus neoformans at 20 ug/mL
[4] = tested on: Staphylococcus aureus; experiment: Antimicrobial activity against Staphylococcus aureus at 20 ug/mL
[5] = tested on: Staphylococcus aureus; experiment: Antimicrobial activity against methicillin-resistant Staphylococcus aureus at 20 ug/mL
[6] = tested on: Pseudomonas aeruginosa; experiment: Antimicrobial activity against Pseudomonas aeruginosa at 20 ug/mL
[7] = tested on: Mycobacterium intracellulare; experiment: Antimicrobial activity against Mycobacterium intracellular at 20 ug/mL

Measured: Activity

COc1cc(C(=O)O[C@H]2C[C@]3(C(=O)O)C[C@@H]4C[C@]45C(=CCC4[C@@]6(C)CC[C@H](O[C@@H]7O[C@H](CO)[C@@H](O)[C@H](O)[C@H]7O[C@@H]7OC[C@@H](O[C@@H]8OC[C@@H](O)[C@H](O)[C@H]8O)[C@H](O)[C@H]7O)C(C)(C)[C@@H]6CC[C@]45C)[C@@H]3CC2(C)C)cc(OC)c1OC (some centres not stated)
inactive: all assays above
